Laboratory results reported in BindingDB's records for PubMed 9808667 (Dupont Pharmaceuticals, 1998).
Square brackets hold non-standard residues; d marks the D form. Peptide text beside a SMILES is read from it.

Biological target: T1, Galanin receptor type 1 (Homo sapiens, UniProt P47211)
T1 sequence (P47211 whole entry): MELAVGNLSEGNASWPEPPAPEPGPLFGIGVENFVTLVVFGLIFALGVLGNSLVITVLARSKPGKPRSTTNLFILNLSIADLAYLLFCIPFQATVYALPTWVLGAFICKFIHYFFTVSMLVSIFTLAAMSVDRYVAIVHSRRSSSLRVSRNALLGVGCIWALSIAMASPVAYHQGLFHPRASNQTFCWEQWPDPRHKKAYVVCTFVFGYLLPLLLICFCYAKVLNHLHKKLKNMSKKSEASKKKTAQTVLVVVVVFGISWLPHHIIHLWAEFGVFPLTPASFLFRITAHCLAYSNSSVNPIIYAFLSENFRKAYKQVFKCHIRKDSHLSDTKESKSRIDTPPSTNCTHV

Ki: 0.685 µM
SMILES: CC(C)C[C@H](NC(=O)[C@H](CC(C)C)NC(=O)[C@@H](Cc1c[nH]c2ccccc12)NC(=O)[C@H](Cc1ccccc1)NC(=O)[C@@H](Cc1c[nH]c2ccccc12)NC(=O)[C@H](CCC(N)=O)NC(=O)[C@H](CCC(N)=O)NC(=O)[C@@H]1CCCN1C(=O)[C@H](CCCCN)NC(=O)[C@@H]1CCCN1C(=O)[C@@H](CCCNC(=N)N)NC(=O)[C@@H]1CCCN1C(=O)CNC(=O)[C@H](CC(C)C)NC(=O)[C@H](CC(C)C)NC(=O)[C@H](Cc1ccc(O)cc1)NC(=O)CNC(=O)[C@H](C)NC(=O)[C@H](CO)NC(=O)[C@H](CC(N)=O)NC(=O)[C@H](CC(C)C)NC(=O)[C@@H](NC(=O)[C@H](Cc1c[nH]c2ccccc12)NC(=O)CN)[C@@H](C)O)C(N)=O [Gal(1-13)-Std I] (H-GWTLNSAGYLLGP[dR]PKPQQ[dW]F[dW]LL-NH2)
